# Results taken from ChEMBL document CHEMBL4431299 (Medchemcomm, 2016).
# Calls of active or inactive are those of the source. No cut-off for these calls is given here.
# Molecular target: Mitogen-activated protein kinase 14 (Mus musculus) (UniProt P47811)
# Experiment: (§1) Inhibition of kinase tracer 199 binding to mouse inactive p38alpha (2 to 349 residues) expressed in Escherichia coli by microscale thermophoresis assay
# Chain of Mitogen-activated protein kinase 14 (Mus musculus) (P47811 whole entry, the tested form may be a part): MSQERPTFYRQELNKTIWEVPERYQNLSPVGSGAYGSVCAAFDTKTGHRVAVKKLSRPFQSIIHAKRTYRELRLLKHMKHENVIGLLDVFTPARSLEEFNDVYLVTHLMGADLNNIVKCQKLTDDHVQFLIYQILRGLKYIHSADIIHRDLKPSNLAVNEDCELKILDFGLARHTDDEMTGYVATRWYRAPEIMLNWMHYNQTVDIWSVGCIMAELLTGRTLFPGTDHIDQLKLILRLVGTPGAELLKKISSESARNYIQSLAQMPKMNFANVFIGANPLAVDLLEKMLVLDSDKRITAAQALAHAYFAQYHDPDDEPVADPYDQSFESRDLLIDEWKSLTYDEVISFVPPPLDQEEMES
row,Compound,inhibition
1,CC(C)(C)c1cc(NC(=O)Nc2ccc(Cl)cc2)n(-c2ccc(F)cc2)n1,Active
2,COc1ccc(-n2nc(C(C)(C)C)cc2NC(=O)Nc2ccc(Cl)cc2)cc1,Active

# The next lines start with the values.
row,inhibition,Compound
1,Active,CC(C)(C)c1cc(NC(=O)Nc2ccc(Cl)cc2)n(-c2ccc(Cl)cc2)n1
2,inactive,CC(C)(C)c1cc(NC(=O)Nc2ccc(Cl)cc2)n(-c2ccccc2Cl)n1
3,Active,CC(C)(C)c1cc(NC(=O)Nc2ccc(Cl)cc2)n(-c2ccccc2F)n1
4,inactive,COc1ccccc1-n1nc(C(C)(C)C)cc1NC(=O)Nc1ccc(Cl)cc1

# Molecular target: Mitogen-activated protein kinase 14 (Mus musculus, UniProt P47811)
# Experiment: as §1
# Chain of Mitogen-activated protein kinase 14 (P47811 whole entry): as the sequence (P47811 whole entry, the tested form may be a part) above
row,Ki,Compound
1,100 nM,CC(C)(C)c1cc(NC(=O)Nc2ccc(Cl)cc2)n(-c2ccccc2)n1
2,20 nM,Cc1cccc(-n2nc(C(C)(C)C)cc2NC(=O)Nc2ccc(Cl)cc2)c1
3,730 nM,Cc1ccccc1-n1nc(C(C)(C)C)cc1NC(=O)Nc1ccc(Cl)cc1
4,30 nM,Cc1ccc(-n2nc(C(C)(C)C)cc2NC(=O)Nc2ccc(Cl)cc2)cc1
